# Assay results taken from patent US20130012404A1, “CULTURE METHOD, EVALUATION METHOD AND STORAGE METHOD FOR CANCER-TISSUE-DERIVED CELL MASS OR AGGREGATED CANCER CELL MASS” (Osaka Prefectural Hospital Organization, priority 2010, published 2013).
# Legend:
# [1] = test system: cell mass derived from the cancer tissue (surgical specimens of human colon cancer, Example 2); experiment: Drug sensitivity test with 5-FU on cancer tissue-derived cell masses embedded in collagen gel; format: cell-based; conditions: 5-FU 0.01, 0.1, 1, 10 and 100 μg/ml; day 8 after culture vs day 0; FIG. 4
# Method: Using 5-FU which is known to inhibit DNA synthesis by binding to a thymidylic acid synthetase involved in the metabolism process necessary for DNA synthesis, a drug sensitivity test on a sample of Example 2 was carried out. The test was carried out by embedding the cell masses (×10 each) derived from the cancer tissue in a collagen gel (CellMatrix type IA (Nitta Gelatin Inc.):5×DMEM (Gibco; 12100-038):buffer solution for gel reconstruction (50 mM NaOH, 260 mM NaHCO3, 200 mM HEPES)=7:2:1), and culturing in 1 cc of STEMPRO serum-free medium (Gibco) for human ES cells in an incubator under the culture conditions of 37° C. and 5% CO2. In addition, 5-FU was applied at a concentration of 0.01 μg/ml, 0.1 μg/ml, 1 μg/ml, 10 μg/ml, and 100 μg/ml, and the states of the cells on days 0 and 8 after culture were compared for evaluation. An increasing rate of the area of the cell mass derived from the cancer tissue was expressed relative to 1 of an increasing rate of the area of the cell mass in the culture without application of a drug.
# [2] = test system: aggregated cancer cell mass; experiment: Drug sensitivity test with doxorubicin on aggregated cancer cell masses embedded in collagen gel; format: cell-based; conditions: doxorubicin 0.1, 1 and 10 μM; day 8 after culture initiation vs day 0; FIG. 14
# Method: Using doxorubicin that is known to exert an antitumor effect by suppressing the biosynthesis of both DNA and RNA as a result of inhibiting the reaction of DNA polymerase, RNA polymerase, and topoisomerase II due to the insertion of doxorubicin between the base pairs of DNA of tumor cells, a drug sensitivity test was carried out by the sample of Example 12. The test was carried out by embedding the aggregated cancer cell mass (×10 each) in collagen gel (CellMatrix type IA (Nitta Gelatin):5×DMEM (Gibco; 12100-038):buffer solution for gel reconstruction (50 mM NaOH, 260 mM NaHCO3, 200 mM HEPES)=7:2:1) and carrying out culture in 1 cc of a STEMPRO human ES cell serum-free medium (Gibco) under the culture conditions of a temperature of 37° C. in 5% CO2 incubator. In addition, doxorubicin was applied at a concentration of 0.1 μM, 1 μM, and 10 μM, and the states on day 0 and on day […] were compared for evaluation. An increasing rate of the area of the aggregated cancer cell mass was relatively expressed when an increasing rate of the area of the cell mass in the culture without application of a drug was determined to be 1.
Structure (SMILES),proliferation of the cancer cell (increasing rate of the area of the cell mass relative to 1 without drug) [1],proliferation of the cancer cell (increasing rate of the area of the aggregated cancer cell mass relative to 1 without drug) [2]
O=c1[nH]cc(F)c(=O)[nH]1 [5-FU],concentration-dependently suppressed,
COc1cccc2c1C(=O)c1c(O)c3c(c(O)c1C2=O)C[C@@](O)(C(=O)CO)C[C@@H]3O[C@H]1C[C@H](N)[C@H](O)[C@H](C)O1 [doxorubicin],,concentration-dependently suppressed
